Assay results published in patent US20230272012A1, “PEPTIDES AND METHODS OF USE” (REALTA LIFE SCIENCES, INC., priority 2020, published 2023).
“Also recorded” adds a separate entry of the source. Bridge positions count the residues as written; N and C are the ends. Square brackets hold non-standard residues; d marks the D form. Ends that are not written are not given here. Peptide text beside a SMILES is read from it. R8 = C=CCCCCCC[C@@](C)(N)C(=O)O; S5 = C=CCCC[C@](C)(N)C(=O)O; Sar = CNCC(=O)O

What was measured:
[1] = system: antibody-initiated complement activation (human O sera and AB red blood cells); experiment: ABO incompatibility hemolytic assay of complement activity (CH50-type); type: cell-based; details: for inhibition of complement activation in vitro, dose response: human AB red blood cells, human O plasma, increasing amounts of peptide
Summary of the method: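 Type AB human erythrocytes (5.0×10^7) incubated with 15% (final) type O human serum and 0.5 mM peptide in GVBS^++, 1 h at 37 °C. Hemolysis read as supernatant absorbance at 412 nm, expressed as percent of the serum-plus-RBC positive control; means of three independent experiments ±SEM.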

[2] = biological target: T1, C1q (Homo sapiens, UniProt P02745+P02746+P02747); experiment: C1q binding ELISA-type assay; details: for binding to C1q: plate-bound C1q, antibody detection
T1 construct: purchased Complement Technology (Tyler, Tex.)
Procedure: The C1q binding assay was performed as previously described. Briefly, an Immunlon-2 HB ELISA plate was coated with 1 μg/ml C1q in bicarbonate buffer overnight at 4° C. The plates were washed with PBS-T (phosphate buffered saline+0.1% Tween) and then blocked with 1% gelatin/PBS for 2 hours at room temperature. After washing, the plates were incubated with the peptides starting at 2.5 mg/ml and then serially diluted in 1% gelatin/PBS for 1 hour at room temperature followed by washing. Plates were then probed with rabbit antibody raised against the lead peptide […] (SEQ ID NO: 2) that lacked PEGylation at 1:1000 in 1% gelatin/PBS for 1 hour at room temperature followed by a goat anti-rabbit HRP (Sigma Aldrich, St Louis, Mo.) at 1:1,000 in 1% gelatin/PBS for 1 hour at room temperature with a washing step in between. After addition of TMB substrate solution to the wells, the reaction was stopped using 1N H2SO4, and the plate read on a BioTek Synergy HT plate reader at 450 nm.
The astrovirus capsid protein and the PIC1 molecules derived from it inhibit classical complement pathway activation by binding to the pattern recognition molecule C1q. The inventors next tested peptide variant binding to C1q in an ELISA-type assay in which C1q is used as the capture substrate and bound peptide detected with a rabbit polyclonal antibody against the peptide portion of PA-dPEG24 ([…]-d24; SEQ ID NO: 3). Binding curves were derived for the stapled and D-amino acid peptides based on the PA-I8Sar and PA-C9Sar (FIG. 6A-6D) backbone, from which half-maximal binding concentrations were calculated (FIGS. 2A and B, respectively). […] For the D-amino acid variants, all peptides in which C1q binding was detected, had variable but increased binding to C1q compared to PA-I8Sar (FIG. 2A). For the peptides based on the PA-C9Sar backbone, with the exception of PA-0148, C1q was bound to the same degree or greater than the parent peptide (FIG. 2B).
The inventors also assessed the ability of RLS-0127* and RLS-0133* to inhibit MPO activity as determined by inhibition of oxidation of TMB in a plate-based assay. […] Additionally, the inventors assessed the ability of RLS-0127* and RLS-0133* to bind C1q in a plate-based assay in which C1q is coated on the plate and increasing amounts of the peptides are added, followed by primary antibody to the peptides and secondary antibody conjugated to HRP. The plate was then incubated with TMB to give a […] signal that is detected at a wavelength of 450 nm in a plate reader.

[3] = biological target: T2, CTLA-4 (Homo sapiens, UniProt P16410); experiment: CTLA-4 Blockade Bioassay (Promega); type: cell-based; set-up: host or cells: Jurkat T cells (CTLA-4 effector cells); aAPC/Raji cells; details: increasing concentrations
T2 sequence (P16410 36-223): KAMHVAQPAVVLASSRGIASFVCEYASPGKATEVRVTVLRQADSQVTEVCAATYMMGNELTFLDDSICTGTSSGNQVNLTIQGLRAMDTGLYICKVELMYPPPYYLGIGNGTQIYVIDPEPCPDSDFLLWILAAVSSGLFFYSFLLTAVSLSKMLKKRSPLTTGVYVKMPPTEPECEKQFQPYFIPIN
Procedure: CTLA-4 effector cells were incubated with aAPC/Raji Cells in the absence or presence of increasing concentrations of anti-CTLA-4 antibody (positive control), RLS-0127*, RLS-0130, RLS-0156, RLS-0170 and RLS-0174. Luminescence was detected in luminometer plate reader.
To assess if PIC1 peptides could block CTLA-4 inhibitory activity in a cell-based assay, select peptides were screened in the CTLA-4 Blockade Bioassay (Promega). This bioluminescent cell-based assay is used to measure the potency and stability of molecules targeting CTLA-4 and consists of two genetically engineered cell lines: CTLA-4 effector cells: Jurkat T cells expressing human CTLA-4 and a luciferase reporter driven by a native promoter which responds to TCR/CD28 activation and aAPC/Raji Cells: Raji cells expressing an engineered cell surface protein designed to activate cognate TCRs in an antigen-independent manner and endogenously expressing CTLA-4 ligands CD80 and CD86. When the two cell types are co-cultured, CTLA-4 competes with CD28 for their shared ligands, CD80 and CD86 and thus inhibits CD28 pathway activation and promoter-mediated luminescence. Addition of a molecule that blocks the interaction of CTLA-4 with its ligands CD80 and CD86 results in promoter-mediated luminescence.

T1 sequence (P02745 23-245): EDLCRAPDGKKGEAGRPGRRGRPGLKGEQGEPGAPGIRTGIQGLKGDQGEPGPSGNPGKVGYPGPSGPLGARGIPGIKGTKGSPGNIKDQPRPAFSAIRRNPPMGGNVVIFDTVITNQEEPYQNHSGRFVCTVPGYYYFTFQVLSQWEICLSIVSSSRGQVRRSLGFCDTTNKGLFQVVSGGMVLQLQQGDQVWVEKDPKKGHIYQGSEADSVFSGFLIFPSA
T1 sequence (P02746 28-253): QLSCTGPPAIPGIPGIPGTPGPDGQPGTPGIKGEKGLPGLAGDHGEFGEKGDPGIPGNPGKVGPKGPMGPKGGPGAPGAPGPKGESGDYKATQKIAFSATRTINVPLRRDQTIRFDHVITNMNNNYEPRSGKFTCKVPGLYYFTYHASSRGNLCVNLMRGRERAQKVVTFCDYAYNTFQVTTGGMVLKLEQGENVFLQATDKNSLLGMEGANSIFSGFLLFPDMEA
T1 sequence (P02747 29-245): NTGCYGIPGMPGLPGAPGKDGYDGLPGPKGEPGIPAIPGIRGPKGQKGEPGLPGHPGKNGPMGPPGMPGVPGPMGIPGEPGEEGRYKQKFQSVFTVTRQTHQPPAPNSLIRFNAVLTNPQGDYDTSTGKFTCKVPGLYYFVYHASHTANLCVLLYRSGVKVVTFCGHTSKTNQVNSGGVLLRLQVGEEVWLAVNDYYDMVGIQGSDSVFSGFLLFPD

**Q.** What does the source list for `CC[C@H](C)[C@H](N)C(=O)N[C@]1(C)CCCCCCC=CCCC[C@@](C)(C(=O)N[C@@H](CS)C(=O)N[C@@H](CCC(N)=O)C(=O)N[C@@H](CCC(=O)O)C(=O)N[C@@H](CCCNC(=N)N)C(=O)N[C@@H](C)C(=O)N[C@@H](C)C(=O)O)NC(=O)CN(C)C(=O)[C@@H]2CCCN2C(=O)[C@H](CCC(=O)O)NC(=O)[C@H](CC(C)C)NC(=O)[C@H]([C@@H](C)CC)NC(=O)[C@H](CC(C)C)NC1=O` [PA-0115, IR8LILEP(Sar)S5CQERAA] (H-I[R8]LILEP[Sar][S5]CQERAA-OH; staple 2-9)?
**A.** inhibition of ABO incompatible hemolysis compared to PA-I8Sar ([1]; peptide 0.8 mg/ml (~0.5 mM)): enhanced activity; binding to C1q compared with PA-I8Sar ([2]; half-maximal binding from binding curves): markedly increased binding to C1q; also recorded: enhanced activity; inhibitory activity in CTLA-4 blockade bioassay (luminescence) [3]: did not

**Q.** What does the source list for “IALILEP(Sar)dCCQERRA (IALILEP[Sar][dC]CQERRA; cysteine pairing not given here) [RLS-0127*]”?
**A.** inhibition of complement activation in vitro, dose response [1]: dose-dependently inhibited complement activation; also recorded: very similar levels of inhibition to the positive control; also recorded: inhibit complement activation; binding to C1q [2]: bound C1q in a dose-dependent manner; also recorded: binds C1q; inhibitory activity in CTLA-4 blockade bioassay (luminescence) [3]: showed inhibitory activity; also recorded: able to inhibit CTLA-4 mediated cell signaling

**Q.** For “IALILEP(Sar)CCQERA (IALILEP[Sar]CCQERA; cysteine pairing not given here) [RLS-0133*]”, which “inhibition of complement activation in vitro, dose response” value [1] is on record?
**A.** Its value is “dose-dependently inhibited complement activation; also recorded: inhibit complement activation”.

**Q.** And the “inhibitory activity in CTLA-4 blockade bioassay (luminescence)” value [3]?
**A.** The value was “did not”.

**Q.** Which results are given for `CC[C@H](C)[C@H](N)C(=O)N[C@@H](C)C(=O)N[C@@H](CC(C)C)C(=O)N[C@H](C(=O)N[C@@H](CC(C)C)C(=O)N[C@@H](CCC(=O)O)C(=O)N1CCC[C@H]1C(=O)N(C)CC(=O)N[C@@H](CS)C(=O)N[C@@]1(C)CCCC=CCCC[C@@](C)(C(=O)N[C@@H](C)C(=O)O)NC(=O)[C@H](CCCNC(=N)N)NC(=O)[C@H](CCC(=O)O)NC(=O)[C@H](CCC(N)=O)NC1=O)[C@@H](C)CC` [PA-0117, IALILEP(Sar)CS5QERS5A] (H-IALILEP[Sar]C[S5]QER[S5]A-OH; staple 10-14)?
**A.** binding to C1q [2]: dose-dependent binding; inhibitory activity in CTLA-4 blockade bioassay (luminescence) [3]: did not
